Test results from paper PMC7371863, “Intracellular interplay between cholecystokinin and leptin signalling for satiety control in rats” (Scientific Reports, 2020).

Assays:
[1] = test system: CCK-1 and CCK-2 receptors (C6 cells); experiment: Ca2+ imaging (Fura-2), CCK-8s response in C6 cells; type: cell-based, rat; conditions: CCK-8s 10 nM; n = 103/five dishes; Fura-2, 34°C, BSS pH 7.4
Procedure: (§1) Rat C6 glioma cells were cultured in Dulbecco’s Modified Eagle Medium/F12 (DMEM/F12) supplemented with 10% FBS, sodium bicarbonate (1.2 g/L), and 1% penicillin/streptomycin antibiotics at 37 °C in 5% CO2. The full-length mouse leptin receptor (ObRb) in pcDNA3.1 vector was kindly provided by Dr. Christian Bjørbaek (BIDMC, Harvard Medical School, Boston, MA, USA) and transfected using Lipofectamine 2000. Subsequently, the cells were cultured in medium containing 500 μg/mL G418 for cell selection.
(§2) C6 cells plated on 35 mm plastic dishes were gently rinsed with buffered salt solution (BSS) consisting of 130 mM NaCl, 5.4 mM KCl, 2 mM CaCl2, 1 mM MgCl2, 5.5 mM D-glucose, and 10 mM HEPES/NaOH (pH 7.4), and incubated in BSS supplemented with 6 µM Fura-2 AM (Dojindo Laboratories, Kumamoto, Japan) for 30 min in a CO2 incubator. Prior to photometry, the cells were rinsed again with BSS, incubated at 37°C for 15 min, and then continuously perfused with BSS at 34°C at a flow rate of 3 mL/min. Fluorescence images were obtained using an upright microscope (Axioplan2; Carl Zeiss, Thornwood, NY, USA) with a water-immersion objective (Achroplan×20 NA0.5w; Carl Zeiss). The wavelength of the excitation UV light (340 nm or 380 nm pulse; 250 msec) was switched using a filter wheel (Lambda 10-2; Sutter Instruments, Novato, CA, USA). […] The background fluorescence was also subtracted using the software. […]

[2] = test system: ARC cells; type: cell-based, rat; conditions: leptin 500 nM; 12 slices; 0.5 µM tetrodotoxin; 34 °C; mean with standard error
[3] = test system: nucleus tractus solitarius; conditions: fourth ventricular injection of leptin; cited from earlier work
Description: (§3) Also, the effect of CCK on satiety control is attenuated in Zucker fa/fa rats lacking functional leptin receptors. In addition, other evidence implicated that leptin-mediated satiety-controlling systems may strongly interact with CCK systems[18],[50]–[54]. For example, c-Fos expression in oxytocin neurons in the hypothalamic paraventricular nucleus is elevated by leptin administration, and these neurons have axons tha ...

[4] = test system: oxytocin neurons in the hypothalamic paraventricular nucleus; conditions: leptin administration; cited from earlier work
Description: as §3

[5] = test system: wild-type C6 cells; experiment: Ca2+ imaging (Fura-2), leptin and CCK-8s signalling interaction in wild-type C6 cells; type: cell-based, rat; conditions: leptin 100 nM
Procedure: as §1
C6 cells plated on 35 mm plastic dishes were gently rinsed with buffered salt solution (BSS) consisting of 130 mM NaCl, 5.4 mM KCl, 2 mM CaCl2, 1 mM MgCl2, 5.5 mM D-glucose, and 10 mM HEPES/NaOH (pH 7.4), and incubated in BSS supplemented with 6 µM Fura-2 AM (Dojindo Laboratories, Kumamoto, Japan) for 30 min in a CO2 incubator. Prior to photometry, the cells were rinsed again with BSS, incubated at 37°C for 15 min, and then continuously perfused with BSS at 34°C at a flow rate of 3 mL/min. Fluorescence images were obtained using an upright microscope (Axioplan2; Carl Zeiss, Thornwood, NY, USA) with a water-immersion objective (Achroplan×20 NA0.5w; Carl Zeiss). The wavelength of the excitation UV light (340 nm or 380 nm pulse; 250 msec) was switched using a filter wheel (Lambda 10-2; Sutter Instruments, Novato, CA, USA). The UV light was generated by a full spectrum 300W Xenon bulb (Lambda LS; Sutter Instruments), conducted to the microscope through a liquid light guide. The pair of fluorescent images was processed using a band-pass filter (485–515 nm) and exposed to a multiple format cooled CCD camera (CoolSnap-fx; Photometrics, Tucson, AZ, USA) at 6-sec intervals. The filter wheel and the CCD camera were controlled using digital imaging software (MetaFluor ver. 6.2; Japan Molecular Devices, Tokyo, Japan). The background fluorescence was also subtracted using the software.
During image acquisition, leptin (PeproTech, Rocky Hill, NJ, USA), CCK-4 (Peptide Institute, Inc., Osaka, Japan), CCK-8s (Sigma-Aldrich, St. Louis, MO, USA), AG490 (Calbiochem, San Diego, CA), LY294002 (Calbiochem), LY225910 (R&D Systems, Minneapolis, MN, USA), LGM (LKT Laboratories Inc., St. Paul, MN, USA), and ATP (Sigma-Aldrich) were applied by switching the perfusate. The magnitude of Ca^2+ responses was determined by peak area analysis using Origin 5.0 software (OriginLab, Northampton, MA, USA).

[6] = test system: meal frequency / meal size; conditions: leptin; cited from earlier work
Description: Although CCK and leptin have been commonly described as satiety controlling peptides, their differential roles have also been highlighted. […] Among the wide variety of intracellular signalling machineries linked to ObRb, it is still uncertain which pathway(s) is/are linked to what type of satiety controls. pSTAT3-ir is used as a genera ...

[7] = test system: megakaryoblast cells; conditions: co-stimulation with leptin; cited from earlier work
Description: It was previously shown that ADP-induced Ca^2+ mobilization, presumably via Gq-coupled P2Y receptor, was enhanced by co-stimulation with leptin in megakaryoblast cells. Since leptin could phosphorylate the tyrosine residue of Gqα protein by JAK2 (i.e., in AG490-dependent manner) in these cells, leptin could facilitate CCK receptor signalling similarly in C6 cells. […] Thus, further downstream signalling might also involve the activation of p ...

[8] = test system: C6-ObRb cells (mouse leptin receptor ObRb); experiment: Ca2+ imaging (Fura-2) in C6 cells overexpressing mouse ObRb (C6-ObRb); type: cell-based, rat C6 cells
Procedure: as §1, §2

[9] = test system: cultured vagal afferent neurons; conditions: cited from earlier work
[10] = test system: cerebellar granule cell cultures; conditions: via MAPK pathways; cited from earlier work
Description: (§4) A product of the obese gene, leptin, is a peptide hormone secreted from white adipocyte tissue, also known as a satiety-controller[31]–[33]. […] Splice variants (ObRa–ObRe) have been identified for leptin receptors and only the full-length isoform (ObRb) contains the intracellular motifs required for the initiation of intracellular signalling. ObRb is a single-transmembrane receptor that interacts with diverse signalling molecules[ ...

[11] = test system: primary cultures of ventromedial hypothalamus (VMN and ARC neurons); conditions: depending on cell populations; cited from earlier work
Description: as §4

[12] = test system: hypothalamic astrocyte cultures; conditions: cited from earlier work
Description: as §4

[13] = test system: dissociated ARC neurons; conditions: cited from earlier work
Description: as §4

## CCK-8s [reference compound]
[1]
  C6 cells displaying Ca2+ transients on re-stimulation: 32%

## leptin: peptide hormone secreted from white adipocyte tissue, product of the obese gene; PeproTech Cat#450-31
[2]
  cells with monophasic Ca2+ increase, ARC: 25.9% ± 4.5
[3]
  CCK-induced satiety response: enhanced the CCK-induced satiety response
  c-Fos expression in the nucleus tractus solitarius: failed to increase c-Fos expression
[4]
  c-Fos expression in oxytocin neurons: elevated
[5]; 5 min or 500 nM, 5 min, n = 185/eight dishes
  Ca2+ transients by leptin treatment alone, wild-type C6 cells: failed to evoke Ca^2+ transients
[5]; 5 min pre-treatment, CCK-8s 10 nM, n = 115/five dishes
  amplification in the magnitude of CCK-8s-induced Ca2+ mobilization: ~ 5 times
[6]
  meal size and meal frequency: reduces meal size but does not alter meal frequency
[7]
  ADP-induced Ca2+ mobilization: enhanced
[8]; leptin 100 nM and CCK-8s 10 nM, n = 84/four dishes, Student's t-test
  magnitude of Ca2+ response by co-stimulation, C6-ObRb versus wild-type: not significantly different from that in wild-type C6 cells
[8]; leptin 100 nM, 5 min or 500 nM, 5 min, n = 190/11 dishes
  Ca2+ transients by leptin treatment alone, C6-ObRb: failed to evoke Ca^2+ transients
[9]
  cytosolic Ca2+ after leptin stimulation: cytosolic Ca^2+ increase
[10]
  action on N-methyl-D-aspartate-induced Ca2+ influx: excitatory actions
[11]
  intrinsic Ca2+ oscillations: increased or decreased intrinsic Ca^2+ oscillations
[12]
  cytosolic Ca2+ after leptin stimulation: monophasic cytosolic Ca^2+ elevation
[13]
  ghrelin-induced Ca2+ elevation: inhibited
